According to paper PMC10823477 (Journal of Medicinal Chemistry, 2023):
Entries after “also recorded” stand apart in the source; their conditions may differ.

Tests used:
5-HT2A receptor = 5-HT2A receptor (Mus musculus, UniProt P35363); test: head-twitch response; type: in vivo, C57BL/6 mice; conditions: mice, 1 mg/kg p.o.; for HTR induction, result in words: 15–30 min window
[1] = plasma pharmacokinetics of psilocin and parent prodrug in healthy mice; conditions: for time up to which parent derivative is detected systemically postdose: plasma parent prodrug; for psilocin AUC(0–tlast) relative to ES02: 10 mg/kg p.o., within first 8 h
[2] = system: mice subjected to a Mild Chronic Stress Paradigm (MCSP); test: marble-burying test; type: in vivo, C57BL/6 mice; conditions: for marble-burying behavior in stressed mice, 1 day postdose, in words / marble-burying behavior in stressed mice, up to 7 days, in words: MCSP mice, single p.o. dose, psilocybin 1 mg/kg, NPDs 10 mg/kg
[3] = humans; cited from earlier work
[4] = human participants, 25 mg psilocybin; cited from earlier work

5-HT2A receptor, sequence (P35363 whole entry): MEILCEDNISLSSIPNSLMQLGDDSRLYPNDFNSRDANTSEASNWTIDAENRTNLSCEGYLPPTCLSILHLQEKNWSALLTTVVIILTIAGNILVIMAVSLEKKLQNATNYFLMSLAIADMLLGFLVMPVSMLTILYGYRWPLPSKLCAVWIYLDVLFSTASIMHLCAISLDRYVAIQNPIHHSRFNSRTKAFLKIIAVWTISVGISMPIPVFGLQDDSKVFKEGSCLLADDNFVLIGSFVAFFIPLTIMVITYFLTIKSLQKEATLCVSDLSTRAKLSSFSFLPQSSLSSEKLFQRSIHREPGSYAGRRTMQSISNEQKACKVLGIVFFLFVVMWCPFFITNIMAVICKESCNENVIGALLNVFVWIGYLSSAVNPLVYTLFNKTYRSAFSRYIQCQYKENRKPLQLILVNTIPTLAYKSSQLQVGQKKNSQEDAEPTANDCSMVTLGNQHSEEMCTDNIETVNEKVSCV

CN(C)CCc1cn(C(=O)OCc2ccccc2)c2cccc(OC(=O)OCc3ccccc3)c12 [C01, Benzyl 4-(((Benzyloxy)carbonyl)oxy)-3-(2-(dimethylamino)ethyl)-1H-indole-1-carboxylate]
HTR induction, result in words (5-HT2A receptor): ineffective in inducing HTR

CN(C)CCc1c[nH]c2cccc(O[Si](C)(C)C(C)(C)C)c12 [SE01, 2-(4-((tert-Butyldimethylsilyl)oxy)-1H-indol-3-yl)-N,N-dimethylethanamine]
HTR induction, result in words (5-HT2A receptor): induced notable HTR
time up to which parent derivative is detected systemically postdose [1]: up to 8 h

CCCC(=O)OCOc1cccc2[nH]cc(CCN(C)C)c12 [EE01, ((3-(2-(Dimethylamino)ethyl)-1H-indol-4-yl)oxy)methyl Butyrate]
HTR induction, result in words (5-HT2A receptor): appeared not to induce a notable hallucinogenic effect

CN(C)CCc1c[nH]c2cccc(OC(=O)c3cccc4c3OCCO4)c12 [ES04, 3-(2-(Dimethylamino)ethyl)-1H-indol-4-yl 2,3-dihydrobenzo[b][1,4]dioxine-5-carboxylate]
HTR induction, result in words (5-HT2A receptor): appeared not to induce a notable hallucinogenic effect

COc1ccc(C(=O)Oc2cccc3[nH]cc(CCN(C)C)c23)cc1 [ES01, 3-(2-(Dimethylamino)ethyl)-1H-indol-4-yl 4-Methoxybenzoate]
HTR induction, result in words (5-HT2A receptor; 1 mg/kg): induced HTR at an intensity statistically equivalent to the natural psychedelic compound; also recorded: produced HTR responses equivalent to psilocybin
psilocin AUC(0–tlast) relative to ES02 [1]: greater than twice that of ES02
marble-burying behavior in stressed mice, 1 day postdose, in words [2]: significant reduction in marble-burying behavior
marble-burying behavior in stressed mice, up to 7 days, in words [2]: completely rescuing the elevated anxiety-like condition to the innate behavioral state up to 7 days after treatment

CN(C)CCc1c[nH]c2cccc(OC(=O)CC3CC3)c12 [ES02, 3-(2-(Dimethylamino)ethyl)-1H-indol-4-yl 2-cyclopropylacetate]
HTR induction, result in words (5-HT2A receptor): induced HTR at an intensity statistically equivalent to the natural psychedelic compound
marble-burying behavior in stressed mice, 1 day postdose, in words [2]: significant reduction in marble-burying behavior

CC(C)[Si](Oc1cccc2[nH]cc(CCN(C)C)c12)(C(C)C)C(C)C [SE02, N,N-Dimethyl-2-(4-((triisopropylsilyl)oxy)-1H-indol-3-yl)ethanamine]
HTR induction, result in words (5-HT2A receptor): induced notable HTR
time up to which parent derivative is detected systemically postdose [1]: up to 8 h

CN(C)CCc1c[nH]c2cccc(OC(=O)OCC3CC3)c12 [C03, Cyclopropylmethyl (3-(2-(Dimethylamino)ethyl)-1H-indol-4-yl) Carbonate]
HTR induction, result in words (5-HT2A receptor): appeared not to induce a notable hallucinogenic effect

CN(C)CCc1c[nH]c2cccc(OC(=O)SCc3ccccc3)c12 [T01, S-Benzyl O-(3-(2-(Dimethylamino)ethyl)-1H-indol-4-yl) Carbonothioate]
HTR induction, result in words (5-HT2A receptor; 1 mg/kg): induced notable HTR; also recorded: statistically significant psychomimetic effects in healthy mice
psilocin (Cmax) produced relative to psilocybin ([1]; 1 mg/kg i.v., 1 mg/kg): three to five times greater than psilocybin; also recorded: approximately four times greater psilocin relative to the natural prodrug
psilocin AUC(0–tlast) relative to ES02 [1]: greater than twice that of ES02
marble-burying behavior in stressed mice, 1 day postdose, in words [2]: significant reduction in marble-burying behavior
marble-burying behavior in stressed mice, up to 7 days, in words [2]: completely rescuing the elevated anxiety-like condition to the innate behavioral state up to 7 days after treatment

CN(C)CCc1c[nH]c2cccc(OP(=O)(O)O)c12 [PCB, psilocybin, reference compound]
duration of psychedelic episode from time of dosing [3]: up to 6 h
duration of statistically enhanced HTR relative to vehicle (5-HT2A receptor): up to 90 min
observation window of peak HTR intensity (5-HT2A receptor): 15 to 30 min
duration of systemic psilocin exposure postadministration [4]: up to 24 h
time of peak plasma psilocin level [4]: 2 h
marble-burying behavior in stressed mice, 1 day postdose, in words [2]: significantly reduced number of buried marbles
marble-burying behavior in stressed mice, up to 7 days, in words [2]: long-term benefits lasting up to 7 days post-treatment
effect on innate burying behavior in nonstressed mice ([2]; nonstressed mice, 1 mg/kg p.o.): no significant effect on the innate burying behavior in nonstressed mice

CN(C)CCc1c[nH]c2cccc(OC(=O)c3c(F)c(F)c(F)c(F)c3F)c12 [ES03, 3-(2-(Dimethylamino)ethyl)-1H-indol-4-yl 2,3,4,5,6-pentafluorobenzoate]
HTR induction, result in words (5-HT2A receptor; 1 mg/kg): induced HTR at an intensity statistically equivalent to the natural psychedelic compound; also recorded: produced HTR responses equivalent to psilocybin

CN(C)CCc1c[nH]c2cccc(OC(=O)OCc3ccccc3)c12 [C02, Benzyl (3-(2-(Dimethylamino)ethyl)-1H-indol-4-yl) Carbonate]
HTR induction, result in words (5-HT2A receptor): statistically significant psychomimetic effects in healthy mice
